Results reported in US20230037862A1, “SYNTHETIC AGONISTS OF TLR4 RECEPTOR” (UNIVERSITÀ DEGLO STUDI DI MILANO - BICOCCA, priority 2017, published 2023).
“Also recorded” adds a separate entry of the source.

How the values were obtained:
[1] = test system: murine macrophages and neutrophil granulocytes; conditions: cited from earlier work
[2] = galactosamine-sensitized mice; cited from earlier work
infective agent = conditions: once or thrice, myelo-suppressed or immunocompetent mice; cited from earlier work
[3] = repeated dosages; cited from earlier work
Escherichia coli = conditions: one dose one day prior to microbial inoculation; cited from earlier work
[4] = tumour-affected patients; cited from earlier work
CD14 = conditions: human peripheral blood cells; cited from earlier work
hTLR4 = target: T1, hTLR4 (Homo sapiens, UniProt O00206+Q9Y6Y9); experiment: HEK-Blue hTLR4 SEAP reporter assay (NF-κB/AP-1 activation); type: cell-based; conditions: HEK-Blue hTLR4 cells, 16-18 hours, SEAP reporter
T1 construct: host or cells: HEK-Blue hTLR4 (HEK cells)
Description: (§1) HEK-Blue™ hTLR4 (FIG. 1A) and HEK-Blue™ Null2 (FIG. 1B) cells were treated with the indicated concentrations of compounds FP11, FP111, and with LPS (100 ng/mL) and incubated for 16-18 hours. Results were normalized to stimulation with LPS alone, and are expressed as mean of percentage ±ES. of at least three independent experiments.
HEK-Blue™ hTLR4 cells were treated with increasing concentrations of compound FP11 and of LPS and incubated for 16-18 hours. Results were normalized to maximum activation of the reporter produced by LPS (FIG. 2A) and to maximum activation of the reporter produced by the compound itself (FIG. 2B). Data were fitted to a sigmoidal four-parameter logistic equation in order to determine IC50 values, and expressed as mean of percentage ±ES of at least three independent experiments.
HEK-Blue™ hTLR4 cells are HEK cells transfected so as to stably express human receptors hTLR4, hMD-2, and hCD14 for endotoxin recognition. In addition, said cells have a reporter gene encoding for a secreted alkaline phosphatase (SEAP) μlaced under the control of specific transcription factors (NF-κB and AP-1) activated by the TLR4 signaling pathway. Therefore, the presence of LPS or of an agonist of TLR4 causes receptor dimerization, activation of the signaling pathway and of transcription factors NF-κB and AP-1, and finally SEAP production and secretion into the culture medium. SEAP levels can be subsequently quantitated by incubating the medium with compound p-nitrophenylphosphate (pNPP) and monitoring with a spectrophotometer the formation of p-nitrophenol chromogenic product at 405 nm.
HEK-Blue™ hTLR4 cells (InvivoGen) were cultured according to manufacturer's instruction. […]
Cells were detached using a cell scraper, counted and seeded in a 96-well multiwell plate at a density of 4×10^4 cells per well. […]
The wells' optical density was determined using a microplate reader set at 405 nm.
The results were normalized with positive control (LPS alone) and expressed as a mean of percentage ±SEM of at least three independent experiments.

HEK-Blue™ Null2 cells = experiment: HEK-Blue Null2 counter-assay (SEAP reporter, no TLR4/MD-2/CD14); type: cell-based; conditions: 16-18 hours
Description: as §1
In order to be certain that the agonist effect of compound FP11 be due to the interaction with the TLR4 receptor, the compounds were tested on the HEK-Blue™ Null2 cell line. Said line expresses the same reporter gene of HEK-Blue™ hTLR4 cells (SEAP), but has none of the receptors involved in endotoxin recognition (TLR4, MD-2, CD14).

[5] = target: T2, purified human MD-2 receptor (Homo sapiens, UniProt Q9Y6Y9); experiment: MD-2-bound fluorescent molecule (bis-ANS) displacement assay; type: binding; conditions: MD-2 200 nM, bis-ANS 200 nM
T2 sequence (Q9Y6Y9 19-160): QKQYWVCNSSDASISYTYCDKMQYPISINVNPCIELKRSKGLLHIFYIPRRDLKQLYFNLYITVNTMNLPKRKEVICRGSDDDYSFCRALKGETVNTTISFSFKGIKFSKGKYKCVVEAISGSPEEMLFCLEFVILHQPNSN
Description: therefore, TLR4 modulators that interact with MD-2 compete with compound bis-ANS, and are able to displace it from MD-2.
Fluorescence was measured on PerkinElmer fluorimeter LS 55 (PerkinElmer, UK) as previously described^[5].
All measurements were done at 20° C. in a 5×5 mm quartz glass cuvette (Hellma Suprasil, Müllheim, Germany). MD-2 protein (200 nM) and 1,1′-Bis(anilino)-4,4′-bis (naphtalene)-8,8′ disulfonate (bis-ANS, 200 nM) were mixed and incubated until reaching stable relative fluorescence units (RFUs) emitted at 420-550 nm under excitation at 385 nm.
Compounds, at different concentrations, were then added, followed by relative fluorescence unit (RFU) measurement at 420-550 nm.

[6] = target: T2, purified human MD-2 receptor; experiment: Biotinylated LPS displacement from MD-2 hydrophobic pocket (ELISA); type: binding; conditions: increasing concentrations, highest 160 μM
Description: The ability to displace LPS from MD-2 hydrophobic pocket was assessed by using an ELISA assay. Molecules FP11 and FP111 were added at increasing concentrations to MD-2 which had previously been incubated with biotinylated LPS.
The ability of the compounds to displace LPS from MD-2 hydrophobic pocket was determined by ELISA.
A microtiter plate was coated overnight at 4° C. with 100 μL/well of 5 μg/mL chicken polyclonal anti-MD-2 antibodies, diluted in 50 mM Na2CO3 buffer, pH 9.6, and blocked with 1% BSA in PBS. After washing, 1 μM MD-2 with biotin-labeled LPS was added and incubated for 2 h. After washing, the compounds were added at different concentrations and incubated for 1.5 h.
After washing, 0.5 μg/mL HRP-conjugated streptavidin (Sigma) in PBS was added, followed by detection at 420 nm after the addition of 100 μL of ABTS (Sigma). Chicken anti-MD-2 polyclonal antibodies were prepared against recombinant MD-2 by GenTel (Madison, Wis., USA),

[7] = target: T2, purified human MD-2 receptor; experiment: Anti-MD-2 antibody (9B4) competition, antibody-sandwich ELISA; type: binding; conditions: up to 20 μM
Description: The direct binding of molecules FP11 and FP111 to MD-2 was analyzed by using a monoclonal antibody binding MD-2, but not LPS-bound MD-2 (Viriyakosol, S., et al., Characterization of monoclonal antibodies to human soluble MD-2 protein. Hybridoma (Larchmt), 2006. 25(6): p. 349-57).
Anti-MD-2 monoclonal antibody (9B4) specifically binds an epitope near the MD-2 hydrophobic pocket, which is available for 9B4 antibody binding only when the MD-2 hydrophobic pocket is empty. Compound FP11 is accountable for a decrease of 9B4 antibody binding to MD-2 equal to 95% at a concentration of 20 μM (FIG. 3E).
The method of antibody-sandwich ELISA for the detection of the binding of compounds to MD-2 was modified from a previous study.
A microtiter plate was coated overnight at 4° C. with 100 μL/well of 5 μg/mL of chicken polyclonal anti-MD-2 antibodies, diluted in 50 mM Na2CO3 buffer, pH 9.6, and blocked with 1% BSA in PBS. After washing, 1 μM MD-2 with tested compounds was added and incubated for 2 h.
Mouse anti-MD-2 mAb (0.1 μg/mL 9B4) and goat antimouse IgG conjugated with HRP (0.1 μg/mL) in PBS were added, followed by detection at 420 nm after the addition of 100 μL of ABTS (Sigma).
Chicken anti-MD-2 polyclonal antibodies were prepared against recombinant MD-2 by GenTel (Madison, Wis., USA), monoclonal mouse anti-MD-9B4 antibodies were from eBioscience (San Diego, Calif., USA), and secondary goat antimouse IgG conjugated with horseradish peroxidase was from Santa Cruz Biotechnology (Santa Cruz, Calif., USA).

[8] = target: T2, purified human MD-2 receptor; experiment: Surface plasmon resonance binding to MD-2
Description: Surface plasmon resonance (SPR) experiments enable the study of direct interactions between the molecules to be characterized and MD-2.
The binding affinity of the compounds to recombinant MD-2 was determined using a Biacore X100 with an NTA sensor chip (Biacore, GE Healthcare, Uppsala, Sweden). Briefly, 0.5 μM MD-2 (in 50 mM TRIS, 150 mM NaCl, 0.5% Tween 20, pH 7.5) was immobilized onto the sensor chip previously activated with 1 min pulse of 10 mM NiSO4. The first flow cell was used as a reference surface to control nonspecific binding.
Both flow cells were incubated with the analyte (in PBS, 5% DMSO, 5% EtOH, pH 7.5) at a flow rate of 10 μL/min at 25° C. at increasing concentrations. The data were analyzed with Biacore Evaluation software. KD values were calculated by global fitting of the equilibrium binding responses from various concentrations of analytes using a 1:1 Langmuir binding model.

T1 sequence (O00206 24-839): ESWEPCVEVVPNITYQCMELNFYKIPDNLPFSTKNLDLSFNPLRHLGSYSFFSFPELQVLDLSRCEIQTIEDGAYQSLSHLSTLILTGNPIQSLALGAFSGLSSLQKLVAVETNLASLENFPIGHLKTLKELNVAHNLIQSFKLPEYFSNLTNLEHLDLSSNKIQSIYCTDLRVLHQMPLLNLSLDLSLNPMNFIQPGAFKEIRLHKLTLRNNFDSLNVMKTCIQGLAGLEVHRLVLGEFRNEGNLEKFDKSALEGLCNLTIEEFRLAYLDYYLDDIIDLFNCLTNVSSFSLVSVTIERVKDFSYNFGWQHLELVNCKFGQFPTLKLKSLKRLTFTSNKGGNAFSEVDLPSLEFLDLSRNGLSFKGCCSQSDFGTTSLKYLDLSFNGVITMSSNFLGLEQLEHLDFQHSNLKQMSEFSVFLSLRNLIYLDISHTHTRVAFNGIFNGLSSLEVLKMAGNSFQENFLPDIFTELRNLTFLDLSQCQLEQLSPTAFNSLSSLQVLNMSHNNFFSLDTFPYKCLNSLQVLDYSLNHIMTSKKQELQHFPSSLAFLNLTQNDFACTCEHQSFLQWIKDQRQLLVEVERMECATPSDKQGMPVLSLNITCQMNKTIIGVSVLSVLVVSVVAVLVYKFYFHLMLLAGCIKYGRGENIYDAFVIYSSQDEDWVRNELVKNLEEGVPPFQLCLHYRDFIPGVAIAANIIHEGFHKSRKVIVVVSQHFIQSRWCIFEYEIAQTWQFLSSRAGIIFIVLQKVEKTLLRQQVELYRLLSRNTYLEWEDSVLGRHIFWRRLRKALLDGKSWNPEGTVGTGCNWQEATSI
T1 sequence (Q9Y6Y9 17-160 limits assumed): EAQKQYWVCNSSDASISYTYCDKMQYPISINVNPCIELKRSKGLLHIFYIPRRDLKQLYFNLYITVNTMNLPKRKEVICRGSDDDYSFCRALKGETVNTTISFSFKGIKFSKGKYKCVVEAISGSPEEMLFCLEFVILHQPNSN

TLR4 agonist activity (activation of NF-κB and AP-1) (hTLR4) | SMILES | stimulation of release of IL-6, IL-8 and TNF-α [1] | factor of toxicity reduction compared to parent endotoxin (Salmonella abortus equi) [2] | protective effect on prophylactic administration (infective agent) | duration of transient resistance to endotoxin-related lethal risks [3] [week] | effect on curative effects of antibiotics (Escherichia coli) | effect on granulocyte counts and serum cytokine levels [4] | safety and tolerability of administration [4] | blocking of compound-induced TNF-α release by monoclonal antibodies for CD-14 (CD14) | activation of transcription factors NF-κB and AP-1 in cells without TLR4, MD-2, CD14 (HEK-Blue™ Null2 cells) | decrease of bis-ANS fluorescence / inhibition of bis-ANS binding to MD-2 [5] | ability to displace biotinylated LPS from MD-2 hydrophobic pocket [6] | prevention of monoclonal antibody 9B4 binding to MD-2 [7] | direct binding to MD-2 (SPR) [8]
 | CCCCCCCCCCC[C@@H](O)CC(=O)N[C@H]1[C@@H](OP(=O)(O)O)O[C@H](CO)[C@@H](OC(=O)C[C@H](O)CCCCCCCCCCC)[C@@H]1OC(=O)C[C@H](O)CCCCCCCCCCC [SDZ MRL 953] | potent activity in stimulating the release of inflammatory cytokines | at least 10^4 | highly protective effect | ≥ 1 | dramatically increased the curative effects of antibiotics administered | increases granulocyte counts and serum levels of G-CSF and interleukin-6 (IL-6), but not of pro-inflammatory cytokines TNF-α, IL-1b, and IL-8 | safe and of excellent tolerability | is not blocked |  |  |  |  | 
completely inactive | CCCCCCCCCCCCCC(=O)NC1[C@H](OP(=O)(O)O)OC(COP(=O)(O)O)[C@@H](OC(=O)CCCCCCCCCCCCC)[C@@H]1OC(=O)CCCCCCCCCCCCC (stereo partly drawn) [FP111, 1,6-O-Phosphoryl-2-deoxy-4-O-tetradecanoyl 3-O-tetradecanoyl-2-tetradecanoylamino-α-D-glucopiranoside] |  |  |  |  |  |  |  |  | unable to activate transcription factors NF-κB and AP-1 | not able to induce a decrease of compound bis-ANS fluorescence; also recorded: but not FP111, inhibits the binding of bis-ANS to MD-2 | unable to displace biotinylated LPS; also recorded: but not FP111, displaces biotinylated LPS | unable to cause a decrease of 9B4 antibody binding; also recorded: but not FP111, prevents the binding of monoclonal antibody to MD-2 | but not FP111, directly binds MD-2; also recorded: does not bind MD-2
